# Assay results reported in patent US7687536B2, “Aminocycloalkyl cinnamide compounds for arrhythmia and as analgesics and anesthetics” (Cardiome Pharma Corp., priority 1999, dated 2010).
# What was measured:
# [1] = system: ECG parameters (P-R, QRS, Q-T interval); experiment: Measurement of ECG parameters in pentobarbital anesthetized rats, bolus injections; type: in vivo, rat; details: bolus injection
# Method: Rats weighing 200-250 gms were used in this example. Animals were anesthetized with 60 mg/kg pentobarbital i.p. The carotid artery and jugular vein were cannulated for measurement of blood pressure and drug injection, respectively. ECG was recorded by insertion of electrodes placed along the anatomical axis of the heart. All compounds were given as bolus injections.
# Various ECG parameters were measured. Table 3 describes the results of the tests as ED25 (micromol/kg) which are the doses required to produce a 25% increase in the parameter measured (ne=not estimated). The increases in P-R interval and QRS interval indicate cardiac sodium channel blockage while the increase in Q-T interval indicates ancillary cardiac potassium channel blockage which is the property of a type 1a antiarrhythmic.
# [2] = target: T1, cardiac sodium channel (Rattus norvegicus, UniProt P15389); experiment: Assessment of sodium channel blockage: electrical stimulation of left ventricle in rats; type: in vivo; details: infusion rate required to elicit a 25% increase from control
# T1 construct: from tissue; host or cells: heart (left ventricle) of the living rat, in vivo
# T1 sequence (P15389 whole entry, the tested form may be a part): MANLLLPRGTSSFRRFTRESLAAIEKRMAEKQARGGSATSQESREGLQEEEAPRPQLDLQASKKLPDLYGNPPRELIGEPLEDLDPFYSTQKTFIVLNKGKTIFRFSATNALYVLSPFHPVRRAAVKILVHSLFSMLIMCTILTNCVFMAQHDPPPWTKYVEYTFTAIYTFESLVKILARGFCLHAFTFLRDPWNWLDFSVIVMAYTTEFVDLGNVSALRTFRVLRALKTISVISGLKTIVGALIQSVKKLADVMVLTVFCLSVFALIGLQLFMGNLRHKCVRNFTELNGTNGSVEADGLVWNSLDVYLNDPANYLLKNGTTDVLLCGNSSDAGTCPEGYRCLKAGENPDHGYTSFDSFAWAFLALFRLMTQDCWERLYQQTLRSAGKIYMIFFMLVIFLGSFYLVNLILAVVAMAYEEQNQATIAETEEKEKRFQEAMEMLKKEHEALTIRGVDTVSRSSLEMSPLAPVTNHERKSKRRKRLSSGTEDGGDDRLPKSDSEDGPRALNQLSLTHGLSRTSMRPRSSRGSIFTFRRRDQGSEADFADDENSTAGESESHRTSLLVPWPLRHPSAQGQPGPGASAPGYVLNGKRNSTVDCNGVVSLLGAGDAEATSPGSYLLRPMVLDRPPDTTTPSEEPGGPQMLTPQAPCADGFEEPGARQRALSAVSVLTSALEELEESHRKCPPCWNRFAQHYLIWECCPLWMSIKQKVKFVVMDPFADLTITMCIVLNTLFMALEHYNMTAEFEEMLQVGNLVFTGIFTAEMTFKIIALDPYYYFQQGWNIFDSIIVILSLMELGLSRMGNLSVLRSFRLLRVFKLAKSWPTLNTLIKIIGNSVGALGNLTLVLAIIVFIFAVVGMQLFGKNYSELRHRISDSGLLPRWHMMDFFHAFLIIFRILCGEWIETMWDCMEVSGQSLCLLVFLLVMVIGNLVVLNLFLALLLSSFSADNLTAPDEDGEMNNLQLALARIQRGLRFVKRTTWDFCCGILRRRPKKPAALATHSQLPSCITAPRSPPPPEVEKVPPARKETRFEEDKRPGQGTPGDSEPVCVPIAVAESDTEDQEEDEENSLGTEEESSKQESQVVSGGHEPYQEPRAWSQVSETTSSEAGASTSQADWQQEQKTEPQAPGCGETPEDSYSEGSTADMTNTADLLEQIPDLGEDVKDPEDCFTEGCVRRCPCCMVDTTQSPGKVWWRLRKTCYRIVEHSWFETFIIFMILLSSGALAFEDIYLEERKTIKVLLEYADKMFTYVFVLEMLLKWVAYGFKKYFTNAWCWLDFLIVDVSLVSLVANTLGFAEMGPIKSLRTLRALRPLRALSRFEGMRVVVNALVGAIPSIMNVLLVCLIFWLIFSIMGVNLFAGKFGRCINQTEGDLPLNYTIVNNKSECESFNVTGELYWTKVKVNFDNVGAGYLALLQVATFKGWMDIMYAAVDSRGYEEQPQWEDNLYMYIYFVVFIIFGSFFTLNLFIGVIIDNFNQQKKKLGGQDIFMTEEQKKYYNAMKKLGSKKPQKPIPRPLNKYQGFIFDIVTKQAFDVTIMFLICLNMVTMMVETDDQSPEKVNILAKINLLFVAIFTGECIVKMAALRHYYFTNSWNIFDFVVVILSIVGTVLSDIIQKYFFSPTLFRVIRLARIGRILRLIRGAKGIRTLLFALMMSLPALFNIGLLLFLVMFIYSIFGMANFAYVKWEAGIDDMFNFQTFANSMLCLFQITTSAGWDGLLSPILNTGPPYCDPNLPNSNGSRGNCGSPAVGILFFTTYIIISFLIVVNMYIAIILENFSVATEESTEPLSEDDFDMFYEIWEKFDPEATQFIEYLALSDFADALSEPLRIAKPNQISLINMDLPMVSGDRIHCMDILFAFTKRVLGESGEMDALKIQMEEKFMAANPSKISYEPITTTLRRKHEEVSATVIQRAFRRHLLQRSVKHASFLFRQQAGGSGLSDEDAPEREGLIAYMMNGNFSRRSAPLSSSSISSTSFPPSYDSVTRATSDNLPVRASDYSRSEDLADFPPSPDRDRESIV
# Method: Rats were prepared according to the preceding procedure. Two silver stimulating electrodes were inserted through the chest wall and implanted in the left ventricle. Square wave stimulation was used to determine threshold current for capture, ventricular fibrillation threshold current, and effective refractory period (Howard, P. G. and Walker, M. J. A., Proc. West. Pharmacol. Soc. 33:123-127 (1990)). Table 4 contains ED25 values for these indices of cardiac sodium channel blockage, where the ED25 is the infusion rate in micromol/kg/minute of compound required to elicit a 25% increase from control. The increases in refractoriness indicate ancillary blockage of potassium channels. The threshold current for capture is represented by “It”. The fibrillation threshold current is represented by “VFT”. The effective refracting period is represented by “ERP”.
# [3] = system: cardiac arrhythmias in conscious rats subjected to coronary artery occlusion; experiment: Antiarrhythmic efficacy: coronary artery occlusion in conscious rats; type: in vivo, rat; details: infusion rate which reduces the arrhythmia score to 50% of that of vehicle-treated animals
# Method: Antiarrhythmic efficacy was assessed by investigating the effect of a compound on the incidence of cardiac arrhythmias in conscious rats subjected to coronary artery occlusion. Rats weighing 200-300 gms were subjected to preparative surgery and assigned to groups in a random block design. In each case, the animal was anesthetized with halothane during surgical preparation. The left femoral artery was cannulated for measurement of mean arterial blood pressure and withdrawal of blood sample. The left femoral vein was also cannulated for injection of drugs. The thoracic cavity was opened and a polyethylene occluder loosely placed around the left anterior descending coronary artery. The thoracic cavity was then closed. ECG was recorded by insertion of electrodes placed along the anatomical axis of the heart. All cannulae and electrode leads were exteriorized in the mid scapular region. […] ECG, arrhythmias, blood pressure, heart rate and mortality were monitored for 30 minutes after occlusion. Arrhythmias were recorded as ventricular tachycardia (VT) and ventricular fibrillation (VF) and scored according to Curtis, M. J. and Walker, M. J. A., Cardiovasc. […]
# Occlusion is associated with increases in R-wave height and “S-T” segment elevation; and an occluded zone (measured after death by cardiogreen dye perfusion) in the range of 25%-50% of total left-ventricular weight. […]
# [4] = system: AF; details: cited from earlier work
# [5] = system: sustained AF maintained during continuous vagal nerve stimulation; experiment: Canine vagal-AF model; type: in vivo, dog
# Method: Mongrel dogs of either sex weighing 15-49 kg were anesthetized with morphine (2 mg/kg im initially, followed by 0.5 mg/kg IV every 2 h) and α-chloralose (120 mg/kg IV followed by an infusion of 29.25 mg/kg/h; St.-Georges et al., 1997). Dogs were ventilated mechanically with room air supplemented with oxygen via an endotracheal tube at 20 to 25 breaths/minute with a tidal volume obtained from a nomogram. Arterial blood gases were measured and kept in the physiological range (SAO2>90%, pH 7.30-7.45). Catheters were inserted into the femoral artery for blood pressure recording and blood gas measurement, and into both femoral veins for drug administration and venous sampling. Catheters were kept patent with heparinized 0.9% saline solution. Body temperature was maintained at 37-40° C. with a heating blanket.
# The heart was exposed via a medial thoracotomy and a pericardial cradle was created. Three bipolar stainless steel, Teflon™-coated electrodes were inserted into the right atria for recording and stimulation, and one was inserted into the left atrial appendage for recording. A programmable stimulator (Digital Cardiovascular Instruments, Berkeley, Calif.) was used to stimulate the right atrium with 2 ms, twice diastolic threshold pulses. Two stainless steel, Teflon™-coated electrodes were inserted into the left ventricle, one for recording and the other for stimulation. A ventricular demand pacemaker (GBM 5880, Medtronics, Minneapolis, Minn.) was used to stimulate the ventricles at 90 beats/minute when (particular during vagal-AF) the ventricular rate became excessively slow. A P23 ID transducer, electrophysiological amplifier (Bloom Associates, Flying Hills, Pa.) and paper recorder (Astromed MT-95000, Toronto, ON, Canada) were used to record ECG leads II and III, atrial and ventricular electrograms, blood pressure and stimulation artefacts. The vagi were isolated in the neck, doubly-ligated and divided, and electrodes inserted in each nerve (see below). To block changes in β-adrenergic effects on the heart, nadolol was administered as an initial dose of 0.5 mg/kg iv, followed by 0.25 mg/kg IV every two hours.
# Drug effects to terminate sustained AF maintained during continuous vagal nerve stimulation were assessed. Unipolar hook electrodes (stainless steel insulated with Teflon™, coated except for the distal 1-2 cm) were inserted via a 21 gauge needle within and parallel to the shaft of each nerve. In most experiments, unipolar stimuli were applied with a stimulator (model DS-9F, Grass Instruments, Quincy, Mass.) set to deliver 0.1 ms square-wave pulses at 10 Hz and a voltage 60% of that required to produce asystole. In some experiments, bipolar stimulation was used. The voltage required to produce asystole ranged between 3-20 volts. Under control conditions, a short burst of rapid atrial pacing (10 Hz, four times diastolic threshold) was delivered to induce AF which was ordinarily sustained for more than 20 minutes. The vagal stimulation voltage was adjusted under control conditions, and then readjusted after each treatment to maintain the same bradycardic effect. AF was defined as rapid (>500 minute under control conditions), irregular atrial rhythm with varying electrogram morphology.
# Diastolic threshold current was determined at a basic cycle length of 300 ms by increasing the current 0.1 mA incrementally until stable capture was obtained. For subsequent protocols current was set to twice diastolic threshold. Atrial and ventricular ERP was measured with the extrastimulus method, over a range of S1S2 intervals at a basic cycle length of 300 ms. A premature extrastimulus S2 was introduced every 15 basic stimuli. The S1S2 interval was increased in 5 ms increments until capture occurred, with the longest S1S2 interval consistently failing to produce a propagated response defining ERP. Diastolic threshold and ERP were determined in duplicate and averaged to give a single value. These values were generally within 5 ms. […]
smiles,measurement,setting,value
"CN(C(=O)C=Cc1ccc(Cl)c(Cl)c1)C1CCCC1N1CCCC1.Cl [Compound 3, (1R,2R)/(1S,2S)≠N-METHYL-N-[2-(1-PYRROLIDINYL)CYCLOPENTYL]3,4-DICHLOROCINNAMIDE MONOHYDROCHLORIDE]",ED25 PR,[1]; dose required to produce a 25% increase in P-R interval,8 µmol/kg
same,ED25 QT,[1]; dose required to produce a 25% increase in Q-T interval,5 µmol/kg
same,ED25 QRS,[1]; dose required to produce a 25% increase in QRS interval,12 µmol/kg
same,ED25 ERP (effective refractory period),[2],2 µmol/kg/min
same,ED25 It (threshold current for capture),[2],4 µmol/kg/min
same,ED25 VFT (fibrillation threshold current),[2],12 µmol/kg/min
same,ED50AA,[3],2 µmol/kg/min
CCCCCCCN(CC)CCCC(O)c1ccc(NS(C)(=O)=O)cc1 (stereo not shown) [ibutilide],patients requiring cardioversion for refractory ventricular arrhythmias,[4],~1.7%
same,risk of ventricular proarrhythmia,[4]; patients,~4.4%
O=C(NCC1CCCCN1)c1cc(OCC(F)(F)F)ccc1OCC(F)(F)F (stereo not shown) [Flecainide],Median dose required for termination of AF,[5]; IV,2.5 µmol/kg
same,effect on blood pressure or heart rate,[5]; at the median dose for termination of vagal-AF,did not reduce blood pressure or heart rate
same,prevented induction of AF,[5]; dogs in which AF was induced under control conditions during ERP determination with vagal nerve stimulation,2/4
same,AF cycle length (AFCL),"[5]; during vagal nerve stimulation, prior to termination of AF",prolonged AFCL
same,Mean dose required for termination of AF,"[5]; mean±SEM, IV",4 ± 2 µmol/kg
same,efficacy for terminating AF (dogs terminated/dogs tested),[5]; vagal-AF,5/6
same,efficacy for terminating AF (percent of dogs),[5]; vagal-AF,80%
